pIC50: −log10 of the molar value. Values joined by “and” are separate entries in the source; they are usually repeats but may differ in a detail not shown here. Equal values may be shown once.
Columns and labels:
Type in all cases: cell-based
endogenous P2X4 channels = target: T1, endogenous P2X4 channels (Homo sapiens, UniProt Q99571); test: Human Monocyte P2X4 Assay (FLIPR); details: primary human monocytes, 3 μM BzATP, one value per donor
T1 construct: measure calcium influx through endogenous P2X4 channels into primary human monocytes
T1 sequence (Q99571 1-388): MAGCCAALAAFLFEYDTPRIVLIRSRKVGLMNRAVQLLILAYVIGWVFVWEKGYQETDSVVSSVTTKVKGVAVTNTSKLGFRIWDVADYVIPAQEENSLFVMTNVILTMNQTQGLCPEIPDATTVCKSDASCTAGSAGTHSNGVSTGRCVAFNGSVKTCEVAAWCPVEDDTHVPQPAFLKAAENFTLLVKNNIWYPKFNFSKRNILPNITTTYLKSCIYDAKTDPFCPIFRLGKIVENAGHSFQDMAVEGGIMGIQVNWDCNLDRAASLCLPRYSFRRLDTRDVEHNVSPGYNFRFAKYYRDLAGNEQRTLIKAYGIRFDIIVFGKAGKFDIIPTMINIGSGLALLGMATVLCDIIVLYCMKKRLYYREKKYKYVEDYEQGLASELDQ
Description: The principle of the assay is to measure calcium influx through endogenous P2X4 channels into primary human monocytes, following activation by 2′,3′-O-(4-benzoyl-benzoyl)-ATP (Bz-ATP). Intracellular calcium concentration changes were measured with a Flipr® (Molecular Devices) device using a calcium sensitive dye (Fluo-8). In primary monocytes P2X4 is located at the lysosome membrane, therefore exocytosis has to be triggered to expose P2X4 at the cellular membrane.
Human peripheral blood mononuclear cells (PBMCs) from anticoagulated blood (blood cells, BC) were isolated via density gradient centrifugation. Whole blood was diluted 1:3 with PBS. Samples of 30 mL were layered carefully on top of 15 mL Biocoll (BIOCHROM) in 50 mL centrifuge tubes (Falcon). Tubes were centrifuged at 914×g for 25 min at RT without brake. The PBMC layer was removed with a 10 mL pipette and transferred into tubes with ice-cold PBS in a total volume of 50 mL. Cells were washed twice by pelleting at 300×g at 4° C., for 10 min and for 5 min respectively. PBMCs were re-suspended in 10 mL medium (X-vivo, Biozym Scientific) and counted in a Neubauer chamber.
Monocytes were isolated by negative selection using the Monocyte isolation kit II from Miltenyi (#130-091-153) according to the instructions. Isolation should be done fast and cells and solutions should be kept on ice at any time. PBMCs in batches of 10 exp8 cells were pelleted (300×g, 10 min) and re-suspended with 300 μL MACS buffer in a 50 mL Falcon tube. FcR Blocking reagent (100 μl) and Biotin-Ab (100 μl) were added, mixed and incubated on ice for 10 min. MACS buffer (300 μL) and anti-Biotin Micro-beads (100 μL) were added, mixed and incubated on ice for 15 min. Cells were washed by pelleting (300×g for 10 min) and re-suspended in 500 μL MACS buffer. For each batch one separation column was placed in the MACS separator and rinsed with 3 mL MACS buffer. The cell suspension was added to the column, followed by 3×3 mL MACS buffer for washing, and the eluent containing the monocytes was collected. Cells were pelleted (300×g for 10 min), re-suspended in X-vivo medium and counted. Monocytes were seeded into fibronectin-coated micro-plates (384-well, black, flat transparent bottom; Corning #3848) at a density of 30,000 cells/well in 50 μL, and cultivated over night (37° C., 5% CO2).
Test substances were dissolved in 100% DMSO at a stock concentration of 10 mM and stored at −20° C. in aliquots. Serial dilutions (2×) were prepared in DMSO and diluted 500× with assay buffer to generate the antagonist plate. In the Flipr measurement, 10 μL per well were transferred (4× dilution) and a final top concentrations of 5 μM and 0.05% DMSO were obtained in the assay. Agonist BzATP was stored at 10 mM in aliquots and diluted to an intermediate concentration of 15 μM to generate the agonist plate. In the Flipr measurement, 10 μL per well were transferred (5× dilution) so that a final assay concentration of 3 μM was obtained.
For the experiment, the medium of the cell plate was discarded manually and 70 μL/well loading buffer was added and incubated for 1 h (37° C., 5% CO2). Loading buffer contained HBSS (w/o calcium/magnesium), 10 mM Hepes pH 7.4, 5 μM Fluo-8 (AM) (Tebu-bio) and 50 mM methylamine (Sigma) to trigger exocytosis. Loading buffer was discarded manually and 30 μL/well low-calcium assay buffer (5 mM KCl, 145 mM NaCl, 0.5 mM CaCl2, 13 mM glucose, 10 mM Hepes pH 7.4) was added. The antagonist plate was transferred (10 μL/well) and after 15 min at RT the agonist plate (10 μL/well) was transferred.
Agonist addition was recorded for 240 seconds after a 10 second baseline. For analysis, a baseline correction was applied, and the maximum of the curve was extracted. Data were normalized towards 0% inhibition (signal at 3 μM BzATP) and 100% inhibition (absence of BzATP stimulation) and fitted with a four-parameter sigmoidal inhibition curve using Prism GraphPad to obtain IC50 values.

human P2X4 [1] = target: T2, human P2X4 (Homo sapiens, UniProt Q99571); test: Human P2X4 HEK Cell FLIPR Assay; details: agonist Bz-ATP at EC80; for Emax: HEK293, HEK293 cells, percentage of maximal inhibition, read-out: Human P2X4 HEK Cells (FLIPR Assay) avg Efficacy [%]
T2 sequence (Q99571 1-388): T1 sequence (Q99571 1-388)
In short: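 Calcium flux read by FLIPR for 120 sec after Bz-ATP challenge at EC80 (established each assay day), following 30 min room-temperature compound preincubation in dye-loaded stable human P2X4 HEK293 cells. Peak RFU over basal normalized to agonist control; IC50, maximal inhibition and Hill coefficient from triplicate means.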

human P2X4 [2] = target: T2, human P2X4; test: FLIPR assay, human P2X4 1321N1 Astrocytoma cells; details: agonist Mg-ATP 0.5 μM (EC80)
Description: (§1) 1321N1 Astrocytoma cells stably expressing human P2X4 or rat P2X4 or mouse P2X4 were plated in Collagen I TC-treated microplate at a seeding density of 10000 cells/well and incubated overnight. P2X4 function was assessed by measuring intracellular calcium changes using the calcium-chelating dye Fluo8-AM (Molecular Devices) on a fluorescent imaging plate reader (FLEX/FLIPR station; Molecular Devices). On the day of the assay, the medium was removed and the cells were incubated for 30 min at 37 °C and 5% CO2 in 30 μL of dye buffer (Hank's balanced salt solution, 10 mM HEPES, 1.8 mM CaCl2, 1 mM MgCl2, 2 mM probenecid, 5 mM D-glucose monohydrate, 5 μM Fluo8-AM, pH=7.4). Compounds diluted in probenecid buffer (Hank's balanced salt solution, 10 mM HEPES, 1.8 mM CaCl2, 1 mM MgCl2, 2 mM probenecid, 5 mM D-glucose monohydrate, pH=7.4) were added in a volume of 10 μL and allowed to incubate for 30 min at room temperature. The final assay DMSO concentration was 0.25%. The agonist, Mg-ATP (Sigma), was added in a volume of 10 μL at a concentration representing the EC80 value. EC80 was determined to be 0.5 μM for human and mouse P2X4 and 5 μM for rat P2X4. The fluorescence was measured for an interval of 120 sec at 2 sec intervals. The excitation and emission wavelengths used to monitor fluorescence were 470-495 nm and 515-575 nm, respectively. The data was analyzed based on the increase in peak relative fluorescence units (RFU) compared to the basal fluorescence and the data was normalized to the agonist control. The compounds were tested in triplicates per plate and mean values were plotted in Excel XLFit to determine IC50 values, percentage of maximal inhibition and the Hill coefficients.

rat P2X4 = target: T3, rat P2X4 (Rattus norvegicus, UniProt P51577); test: FLIPR assay, rat P2X4 1321N1 Astrocytoma cells; details: agonist Mg-ATP 5 μM (EC80)
T3 sequence (P51577 1-388): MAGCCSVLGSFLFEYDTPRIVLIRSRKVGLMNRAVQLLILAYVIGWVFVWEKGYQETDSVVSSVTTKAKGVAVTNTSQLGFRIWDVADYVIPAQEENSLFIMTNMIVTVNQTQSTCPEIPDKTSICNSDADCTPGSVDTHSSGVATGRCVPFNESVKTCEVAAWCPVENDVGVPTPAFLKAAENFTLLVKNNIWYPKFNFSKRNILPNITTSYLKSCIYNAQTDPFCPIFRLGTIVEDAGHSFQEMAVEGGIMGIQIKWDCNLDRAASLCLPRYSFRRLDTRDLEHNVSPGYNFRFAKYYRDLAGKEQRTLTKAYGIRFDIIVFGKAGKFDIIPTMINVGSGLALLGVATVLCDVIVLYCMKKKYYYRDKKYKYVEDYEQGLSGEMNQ
Description: as §1

mouse P2X4 = target: T4, mouse P2X4 (Mus musculus, UniProt Q9JJX6); test: FLIPR assay, mouse P2X4 1321N1 Astrocytoma cells; details: agonist Mg-ATP 0.5 μM (EC80)
T4 sequence (Q9JJX6 1-388): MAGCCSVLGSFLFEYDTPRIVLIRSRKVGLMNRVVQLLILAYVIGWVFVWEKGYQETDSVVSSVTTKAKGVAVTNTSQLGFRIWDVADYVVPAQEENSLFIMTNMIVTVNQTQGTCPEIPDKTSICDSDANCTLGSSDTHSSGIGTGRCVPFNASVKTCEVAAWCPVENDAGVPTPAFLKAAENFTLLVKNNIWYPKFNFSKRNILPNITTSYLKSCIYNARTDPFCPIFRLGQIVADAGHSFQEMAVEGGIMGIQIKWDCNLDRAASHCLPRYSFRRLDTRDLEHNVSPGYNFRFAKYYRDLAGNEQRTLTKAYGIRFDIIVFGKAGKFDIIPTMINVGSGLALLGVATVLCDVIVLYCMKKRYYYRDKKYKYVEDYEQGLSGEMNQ
Description: as §1

Compound | Human P2X4 Monocytes (FLIPR Assay) Efficacy for different donors (endogenous P2X4 channels) | Emax (human P2X4 [1]) [%] | other results
NS(=O)(=O)c1cc(NC(=O)Cc2ccccc2Cl)cnc1-n1cc(C(F)(F)F)cn1 [Example 380, 2-(2-Chlorophenyl)-N-{5-sulfamoyl-6-[4-(trifluoromethyl)-1H-pyrazol-1-yl]pyridin-3-yl}acetamide] | 32% and 107% | 69 | 
NS(=O)(=O)c1cc(NC(=O)Cc2ccccc2Cl)cnc1-n1cc(Cl)cn1 [Example 387, 2-(2-Chlorophenyl)-N-[6-(4-chloro-1H-pyrazol-1-yl)-5-sulfamoylpyridin-3-yl]acetamide] | 51% | 73 | 
COc1ccc(CC(=O)Nc2ccc(-n3cc(Cl)cn3)c(S(N)(=O)=O)c2)cc1 [Example 170, N-[4-(4-Chloro-1H-pyrazol-1-yl)-3-sulfamoylphenyl]-2-(4-methoxyphenyl)acetamide] | 69% and 54% | 70 | 
NS(=O)(=O)c1cc(NC(=O)Cc2ccccc2F)cnc1-c1cnn(C(F)F)c1 [Example 321, N-{6-[1-(Difluoromethyl)-1H-pyrazol-4-yl]-5-sulfamoylpyridin-3-yl}-2-(2-fluorophenyl)acetamide] | 34% and 46% and 95% | 84 | Emax (endogenous P2X4 channels; read-out: Human P2X4 Monocytes (FLIPR Assay) Efficacy for different donors): 49%; pIC50 (endogenous P2X4 channels; read-out: Human P2X4 Monocytes (FLIPR Assay) IC50 for different donors): 6.80
COc1ncc(-c2ccc(NC(=O)Cc3ccccc3Cl)cc2S(N)(=O)=O)s1 [Example 422, 2-(2-Chlorophenyl)-N-[4-(2-methoxy-1,3-thiazol-5-yl)-3-sulfamoylphenyl]acetamide] |  | 90 | pIC50 (human P2X4 [1]; HEK293 cells, individual values listed where some fall outside detection range): 7.34

Second part, led by results:

Human P2X4 Monocytes (FLIPR Assay) Efficacy for different donors (endogenous P2X4 channels) | Emax (human P2X4 [1]) [%] | Compound | other results
77% and 88% | 92 | NS(=O)(=O)c1cc(NC(=O)Cc2ccccc2Cl)ccc1-n1cnc(Cl)n1 [Example 24, 2-(2-Chlorophenyl)-N-[4-(3-chloro-1H-1,2,4-triazol-1-yl)-3-sulfamoylphenyl]-acetamide] | 
88% | 85 | NS(=O)(=O)c1cc(NC(=O)Cc2ccccc2Cl)ccc1-n1cc(F)cn1 [Example 26, 2-(2-Chlorophenyl)-N-[4-(4-fluoro-1H-pyrazol-1-yl)-3-sulfamoylphenyl]acetamide] | 
 | 71 | NS(=O)(=O)c1cc(NC(=O)Cc2ccccc2Cl)ccc1-n1cc(C(F)(F)F)cn1 [Example 19, 2-(2-Chlorophenyl)-N-{3-sulfamoyl-4-[4-(trifluoromethyl)-1H-pyrazol-1-yl]phenyl}acetamide] | Human P2X4 1321N1 Astrocytoma Cells (FLIPR Assay) avg Efficacy [%] (human P2X4 [2]): 60%; Rat P2X4 1321N1 Astrocytoma Cells (FLIPR Assay) avg Efficacy [%] (rat P2X4): 57%; Mouse P2X4 1321N1 Astrocytoma Cells (FLIPR Assay) avg Efficacy [%] (mouse P2X4): 69%
64% and 90% | 90 | NS(=O)(=O)c1cc(NC(=O)Cc2ccccc2Cl)ccc1-n1cc(Br)cn1 [Example 28, N-[4-(4-Bromo-1H-pyrazol-1-yl)-3-sulfamoylphenyl]-2-(2-chlorophenyl)acetamide] | 
